Assay results reported in ChEMBL document CHEMBL3877268, “Development of resveratrol-curcumin hybrids as potential therapeutic agents for inflammatory lung diseases” (Eur J Med Chem, 2017).
Calls of active or inactive are those of the source. The rule behind the calls is not given here.

Assays:
[1] = Cytotoxicity against human HL-7702 cells assessed as viable cells at 10 uM measured after 24 hrs by MTT assay; format: toxicity, cell-based; conditions: l02, 24 h
[2] = test system: Mus musculus; assay: Anti-inflammatory activity in LPS-induced C57BL/6 mouse acute lung injury model assessed as reduction in number of neutrophils in bronchoalveolar lavage fluid at 5 mg/kg, ig pretreated for 7 days followed LPS challenge measured after 6 hrs by Wright-Giemsa staining based assay; format: functional, organism-based
[3] = test system: Mus musculus; assay: Anti-inflammatory activity in LPS-induced C57BL/6 mouse acute lung injury model assessed as reduction in CD68-positive macrophage level in lung tissue at 5 mg/kg, ig pretreated for 7 days followed LPS challenge measured after 6 hrs by […] light microscopy; format: functional, organism-based
[4] = test system: Mus musculus; assay: Anti-inflammatory activity in LPS-induced C57BL/6 mouse acute lung injury model assessed as reduction in airspace inflammation in lung tissue at 5 mg/kg, ig pretreated for 7 days followed LPS challenge measured after 6 hrs by hematoxylin and eosin staining based light microscopy; format: functional, organism-based
[5] = Chemical stability of the compound in phosphate buffer at pH 7.4 at 20 uM measured every 5 mins for 25 mins by UV-visible absorption spectra analysis; format: physicochemical; conditions: pH 7.4, 25 min
[6] = test system: Peritoneal macrophage; assay: Anti-inflammatory activity in mouse peritoneal macrophage assessed as inhibition of LPS-induced IL-12 mRNA expression at 10 uM pretreated for 30 mins followed by LPS challenge measured after 6 hrs by q-PCR analysis; format: functional
[7] = test system: Mus musculus; assay: Anti-inflammatory activity in LPS-induced C57BL/6 mouse acute lung injury model assessed as reduction in lung wet/dry ratio at 5 mg/kg, ig pretreated for 7 days followed LPS challenge measured after 6 hrs; format: functional, organism-based
[8] = test system: Peritoneal macrophage; assay: Anti-inflammatory activity in mouse peritoneal macrophage assessed as inhibition of LPS-induced TNF-alpha mRNA expression at 10 uM pretreated for 30 mins followed by LPS challenge measured after 6 hrs by q-PCR analysis; format: functional
[9] = test system: Mus musculus; assay: Anti-inflammatory activity in LPS-induced C57BL/6 mouse acute lung injury model assessed as reduction in TNF-alpha level in serum at 5 mg/kg, ig pretreated for 7 days followed LPS challenge measured after 6 hrs by ELISA method; format: functional, organism-based
[10] = test system: Mus musculus; assay: Anti-inflammatory activity in LPS-induced C57BL/6 mouse acute lung injury model assessed as reduction in total protein concentration at 5 mg/kg, ig pretreated for 7 days followed LPS challenge measured after 6 hrs by BCA protein assay; format: functional, organism-based
[11] = test system: Mus musculus; assay: Anti-inflammatory activity in LPS-induced C57BL/6 mouse acute lung injury model assessed as reduction in TNF-alpha level in bronchoalveolar lavage fluid at 5 mg/kg, ig pretreated for 7 days followed LPS challenge measured after 6 hrs by ELISA method; format: functional, organism-based
[12] = test system: RAW264.7; assay: Anti-inflammatory activity in mouse RAW264.7 cells assessed as inhibition of LPS-induced IL-6 expression pretreated for 30 mins followed by LPS challenge measured after 24 hrs by ELISA method; format: functional, cell-based
[13] = test system: Mus musculus; assay: Anti-inflammatory activity in LPS-induced C57BL/6 mouse acute lung injury model assessed as reduction in IL-6 level in bronchoalveolar lavage fluid at 5 mg/kg, ig pretreated for 7 days followed LPS challenge measured after 6 hrs by ELISA method; format: functional, organism-based
[14] = test system: Peritoneal macrophage; assay: Anti-inflammatory activity in mouse peritoneal macrophage assessed as inhibition of LPS-induced IL-6 expression at 10 uM pretreated for 30 mins followed by LPS challenge measured after 6 hrs by q-PCR analysis; format: functional
[15] = test system: Peritoneal macrophage; assay: Anti-inflammatory activity in mouse peritoneal macrophage assessed as inhibition of LPS-induced IL-33 mRNA expression at 10 uM pretreated for 30 mins followed by LPS challenge measured after 6 hrs by q-PCR analysis; format: functional
[16] = test system: RAW264.7; assay: Anti-inflammatory activity in mouse RAW264.7 cells assessed as inhibition of LPS-induced IL-6 expression at […] pretreated for 30 mins followed by LPS challenge measured after 24 hrs by ELISA method; format: functional, cell-based
[17] = test system: Mus musculus; assay: Anti-inflammatory activity in LPS-induced C57BL/6 mouse acute lung injury model assessed as reduction in IL-6 level in serum at 5 mg/kg, ig pretreated for 7 days followed LPS challenge measured after 6 hrs by ELISA method; format: functional, organism-based
[18] = test system: RAW264.7; assay: Anti-inflammatory activity in mouse RAW264.7 cells assessed as inhibition of LPS-induced TNF-alpha expression at […] pretreated for 30 mins followed by LPS challenge measured after 24 hrs by ELISA method; format: functional, cell-based
[19] = test system: Mus musculus; assay: Anti-inflammatory activity in LPS-induced C57BL/6 mouse acute lung injury model assessed as reduction in total number of cells in bronchoalveolar lavage fluid at 5 mg/kg, ig pretreated for 7 days followed LPS challenge measured after 6 hrs by hemocytometer; format: functional, organism-based

For COc1ccc(/C=C/c2cc(OC)cc(OC)c2/C=C/C(=O)/C=C/c2ccc(N3CCN(C)CC3)cc2)cc1, the Activity [1] was “Non-Toxic”.

For COc1ccc(/C=C/c2cc(OC)cc(OC)c2/C=C/C(=O)/C=C/c2ccc(O)c(Br)c2)cc1, the Activity [1] was “Non-Toxic”.

In the case of COc1ccc(/C=C/c2cc(OC)cc(OC)c2/C=C/C(=O)/C=C/c2cc(C(F)(F)F)ccc2C(F)(F)F)cc1, the Activity [1] is reported as “Non-Toxic”.

For COc1ccc(/C=C/c2cc(OC)cc(OC)c2/C=C/C(=O)/C=C/c2ccccc2Cl)cc1, the Activity [1] was “Non-Toxic”.

With COc1ccc(/C=C/c2cc(OC)cc(OC)c2/C=C/C(=O)/C=C/c2ccc(C)cc2C)cc1 the Activity [1] was “Non-Toxic”.

For COc1ccc(/C=C/c2cc(OC)cc(OC)c2/C=C/C(=O)/C=C/c2ccc(C(C)(C)C)cc2)cc1, the Activity [1] was “Non-Toxic”.

For COc1ccc(/C=C/c2cc(OC)cc(OC)c2/C=C/C(=O)/C=C/c2cccc(OC)c2OC)cc1, the Activity [2] was “Active”, the Activity [1] was “Non-Toxic” and the Activity [3] was “Active”. The Activity [4] was “Active”, the Stability [5] was “Stable” and the inhibition [6] was “Active”. The Activity [7] was “Active”, the inhibition [8] was “Active” and the Activity [9] was “Active”. The Activity [10] was “Active”, the Activity [11] was “Active” and the IC50 [12] was 2.48 µM. The inhibition [12] was “Dose-dependent effect”, the Activity [13] was “Active” and the inhibition [14] was “Active”. For the same compound, the inhibition [15] was “Active”, the inhibition [16] was “Active” and the Activity [17] was “Active”. For the same compound, the inhibition [18] was “Active” and the Activity [19] was “Active”.

For COc1ccc(/C=C/c2cc(OC)cc(OC)c2/C=C/C(=O)/C=C/c2ccc(OCCCN(C)C)cc2)cc1, the Activity [1] was “Non-Toxic”, the Stability [5] was “Stable” and the IC50 [12] was 2.15 µM. The inhibition [12] was “Dose-dependent effect”, the inhibition [16] was “Active” and the inhibition [18] was “Active”.

In the case of COc1ccc(/C=C/c2cc(OC)cc(OC)c2/C=C/C(=O)/C=C/c2ccc(C(F)(F)F)cc2)cc1, the Activity [1] is reported as “Non-Toxic”.

In the case of COc1ccc(/C=C/c2cc(OC)cc(OC)c2/C=C/C(=O)/C=C/c2ccccc2C(F)(F)F)cc1, the Activity [1] is reported as “Non-Toxic”, the inhibition [16] is reported as “Active” and the inhibition [18] is reported as “Active”.

With COc1ccc(/C=C/c2cc(OC)cc(OC)c2/C=C/C(=O)/C=C/c2ccc3c(c2OC)OCO3)cc1 the Activity [1] was “Non-Toxic”.

For COc1ccc(/C=C/c2cc(OC)cc(OC)c2/C=C/C(=O)/C=C/c2c(OC)cc(OC)cc2OC)cc1, the Activity [1] was “Non-Toxic” and the inhibition [16] was “Active”.

In the case of COc1ccc(/C=C/c2cc(OC)cc(OC)c2/C=C/C(=O)/C=C/c2ccc(O)c(OC)c2)cc1, the Activity [1] is reported as “Non-Toxic”.

With COc1ccc(/C=C/c2cc(OC)cc(OC)c2/C=C/C(=O)/C=C/c2cccc3ccccc23)cc1 the Activity [1] was “Non-Toxic”.

For COc1ccc(/C=C/c2cc(OC)cc(OC)c2/C=C/C(=O)/C=C/c2ccc(OC(C)(C)C)cc2)cc1, the Activity [1] was “Non-Toxic”.

With C=CCOc1ccc(/C=C/C(=O)/C=C/c2c(/C=C/c3ccc(OC)cc3)cc(OC)cc2OC)cc1 the Activity [1] was “Non-Toxic”.

With COc1ccc(/C=C/c2cc(OC)cc(OC)c2/C=C/C(=O)/C=C/c2cccc(C(F)(F)F)c2)cc1 the Activity [1] was “Non-Toxic” and the inhibition [16] was “Active”.

With Oc1ccc(/C=C/c2cc(O)cc(O)c2)cc1 [RESVERATROL] the Stability [5] was “Unstable”.

In the case of COc1ccc(/C=C/c2cc(OC)cc(OC)c2/C=C/C(=O)/C=C/c2ccccc2OC)cc1, the Activity [1] is reported as “Non-Toxic”.

For CCOc1ccc(/C=C/C(=O)/C=C/c2c(/C=C/c3ccc(OC)cc3)cc(OC)cc2OC)cc1, the Activity [1] was “Non-Toxic”.

In the case of COc1ccc(/C=C/c2cc(OC)cc(OC)c2/C=C/C(=O)/C=C/c2ccc(OC)cc2OC)cc1, the Activity [1] is reported as “Non-Toxic”, the Stability [5] is reported as “Stable” and the IC50 [12] is reported as 3.03 µM. The inhibition [12] was “Dose-dependent effect”, the inhibition [16] was “Active” and the inhibition [18] was “Active”.

In the case of COc1ccc(/C=C/c2cc(OC)cc(OC)c2/C=C/C(=O)/C=C/c2ccc(C)s2)cc1, the Activity [1] is reported as “Non-Toxic”, the Stability [5] is reported as “Unstable” and the IC50 [12] is reported as 4.33 µM. The inhibition [12] was “Dose-dependent effect”, the inhibition [16] was “Active” and the inhibition [18] was “Active”.

For COc1ccc(/C=C/c2cc(OC)cc(OC)c2/C=C/C(=O)/C=C/c2ccccc2Br)cc1, the Activity [1] was “Non-Toxic”.

With COc1ccc(/C=C/c2cc(OC)cc(OC)c2/C=C/C(=O)/C=C/c2ccccc2)cc1 the Activity [1] was “Non-Toxic”, the Stability [5] was “Unstable” and the IC50 [12] was 3.9 µM. For the same compound, the inhibition [12] was “Dose-dependent effect”, the inhibition [16] was “Active” and the inhibition [18] was “Active”.

With COc1ccc(/C=C/c2cc(OC)cc(OC)c2/C=C/C(=O)/C=C/c2ccc(OC)c(Br)c2)cc1 the Activity [1] was “Non-Toxic” and the inhibition [16] was “Active”.

In the case of CCN(CC)c1ccc(/C=C/C(=O)/C=C/c2c(/C=C/c3ccc(OC)cc3)cc(OC)cc2OC)cc1, the Activity [1] is reported as “Non-Toxic” and the inhibition [16] is reported as “Active”.
